Results as given in patent US12371428B2 (Exelixis, Inc., priority 2019, dated 2025).

How the values were obtained:
[1] = target: Human MET (residues 956-1390) (Homo sapiens (Human), UniProt P08581); experiment: Human Met kinase assay, HTRF KinEase (Example D-2); type: biochemical; details: protocol of Example D-2 (other compounds); read-out: c-Met IC50
Method in brief: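 IC50 values come from a 4-parameter logistic fit of the […] fluorescence ratio, set between DMSO (100%) and reference compound at 1 μM (0%). Reactions held MET 956-1390 at 0.1 ng/well, ATP at Km, biotinylated peptide, 5 mM MgCl2, 1 mM MnCl2, 1 mM DTT and 3% DMSO, and ran 40 min at room temperature before streptavidin-XL665/Eu-antibody detection.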

[2] = target: Met (phospho-Met, HGF-stimulated PC-3 prostate cancer cells) (Homo sapiens (Human), UniProt P08581); experiment: Met autophosphorylation ELISA in PC-3 cells (Example F); type: cell-based; details: cellular activity; Met autophosphorylation ELISA in PC-3 cells; read-out: c-Met IC50
Met (phospho-Met, HGF-stimulated PC-3 prostate cancer cells), sequence (P08581 25-1390): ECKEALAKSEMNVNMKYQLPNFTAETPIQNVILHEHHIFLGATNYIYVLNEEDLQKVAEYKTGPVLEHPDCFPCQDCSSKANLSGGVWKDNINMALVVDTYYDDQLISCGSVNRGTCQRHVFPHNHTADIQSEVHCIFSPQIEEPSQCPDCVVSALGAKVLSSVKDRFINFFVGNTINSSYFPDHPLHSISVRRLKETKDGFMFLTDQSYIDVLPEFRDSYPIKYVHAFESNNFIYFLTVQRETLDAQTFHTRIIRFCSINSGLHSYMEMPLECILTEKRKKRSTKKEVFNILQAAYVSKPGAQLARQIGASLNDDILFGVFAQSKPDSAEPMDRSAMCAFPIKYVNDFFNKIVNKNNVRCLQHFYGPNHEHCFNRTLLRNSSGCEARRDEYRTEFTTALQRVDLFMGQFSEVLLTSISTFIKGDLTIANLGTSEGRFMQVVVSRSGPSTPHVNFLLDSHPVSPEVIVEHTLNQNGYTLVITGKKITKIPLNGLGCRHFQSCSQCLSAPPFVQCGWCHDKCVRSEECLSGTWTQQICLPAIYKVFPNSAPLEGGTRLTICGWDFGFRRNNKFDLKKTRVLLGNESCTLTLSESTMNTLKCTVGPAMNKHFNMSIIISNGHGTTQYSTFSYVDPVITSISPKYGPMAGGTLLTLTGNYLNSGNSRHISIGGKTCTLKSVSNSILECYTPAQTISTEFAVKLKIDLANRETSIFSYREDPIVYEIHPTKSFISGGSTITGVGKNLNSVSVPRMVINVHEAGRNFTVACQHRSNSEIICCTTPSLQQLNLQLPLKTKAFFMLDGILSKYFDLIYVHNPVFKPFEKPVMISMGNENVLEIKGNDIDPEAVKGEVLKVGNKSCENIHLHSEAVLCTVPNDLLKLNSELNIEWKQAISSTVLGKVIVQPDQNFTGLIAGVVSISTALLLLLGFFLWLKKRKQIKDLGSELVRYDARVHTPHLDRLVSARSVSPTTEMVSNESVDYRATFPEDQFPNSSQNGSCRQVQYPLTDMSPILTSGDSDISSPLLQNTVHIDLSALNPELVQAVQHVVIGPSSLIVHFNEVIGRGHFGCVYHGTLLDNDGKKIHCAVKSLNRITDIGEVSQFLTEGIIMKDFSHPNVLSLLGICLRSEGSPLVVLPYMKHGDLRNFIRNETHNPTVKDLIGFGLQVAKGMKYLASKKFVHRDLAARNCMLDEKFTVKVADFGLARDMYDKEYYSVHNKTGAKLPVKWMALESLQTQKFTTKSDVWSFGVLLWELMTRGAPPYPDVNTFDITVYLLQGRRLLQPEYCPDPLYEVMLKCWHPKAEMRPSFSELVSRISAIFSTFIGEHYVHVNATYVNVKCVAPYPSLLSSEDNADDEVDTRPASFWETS
Method in brief: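 Sandwich ELISA for phospho-Met (panTyr) in PC-3 lysates. Cells starved 3 h serum-free, compound 1 h (8-pt curve, 0.3% DMSO), HGF 100 ng/mL 10 min. 100% = HGF + DMSO; 0% = HGF + reference inhibitor. IC50 by 4-parameter fit.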

[3] = target: Mer (phospho-Mer, MERTK-transfected 293A cells) (Homo sapiens (Human), UniProt Q12866); experiment: Mer autophosphorylation ELISA in transient transfected 293A cells (Example H); type: cell-based; details: cellular activity; Mer autophosphorylation ELISA in transient transfected 293A cells
Mer (phospho-Mer, MERTK-transfected 293A cells), sequence (Q12866 21-999): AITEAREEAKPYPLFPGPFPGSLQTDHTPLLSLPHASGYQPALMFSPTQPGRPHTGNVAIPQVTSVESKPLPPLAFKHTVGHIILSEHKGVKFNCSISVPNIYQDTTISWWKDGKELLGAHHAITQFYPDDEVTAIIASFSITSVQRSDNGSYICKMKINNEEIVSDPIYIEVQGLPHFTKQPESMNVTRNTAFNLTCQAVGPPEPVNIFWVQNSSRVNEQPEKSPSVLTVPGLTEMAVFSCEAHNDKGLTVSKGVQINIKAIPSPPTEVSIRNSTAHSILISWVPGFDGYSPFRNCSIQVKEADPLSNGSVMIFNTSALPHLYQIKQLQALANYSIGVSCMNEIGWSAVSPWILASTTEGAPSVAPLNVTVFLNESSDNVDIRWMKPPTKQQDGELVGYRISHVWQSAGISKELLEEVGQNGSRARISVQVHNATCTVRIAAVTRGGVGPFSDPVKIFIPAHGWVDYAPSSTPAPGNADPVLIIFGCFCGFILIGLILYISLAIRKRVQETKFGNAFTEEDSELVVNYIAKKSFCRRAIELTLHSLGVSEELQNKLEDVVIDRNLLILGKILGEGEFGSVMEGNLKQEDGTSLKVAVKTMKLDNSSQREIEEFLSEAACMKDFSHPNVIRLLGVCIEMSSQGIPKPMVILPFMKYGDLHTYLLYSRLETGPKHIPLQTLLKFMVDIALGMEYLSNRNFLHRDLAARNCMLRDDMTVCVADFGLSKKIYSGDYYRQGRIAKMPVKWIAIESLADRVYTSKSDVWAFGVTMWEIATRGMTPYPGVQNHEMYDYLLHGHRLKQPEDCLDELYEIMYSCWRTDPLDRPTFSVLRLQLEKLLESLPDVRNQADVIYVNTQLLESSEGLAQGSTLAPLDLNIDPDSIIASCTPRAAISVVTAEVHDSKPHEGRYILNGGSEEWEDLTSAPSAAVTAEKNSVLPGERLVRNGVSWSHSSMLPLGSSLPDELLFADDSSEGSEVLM
Method in brief: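 Inhibition of cellular Mer autophosphorylation is determined in 293A cells transiently expressing human MERTK after 1 h compound exposure (8 concentrations, serum-free, 0.3% DMSO). Phospho-Mer in clarified lysates is measured by ELISA, with DMSO and reference-inhibitor wells defining the 100% and 0% activity limits.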

Human MET (residues 956-1390), sequence (P08581 956-1390): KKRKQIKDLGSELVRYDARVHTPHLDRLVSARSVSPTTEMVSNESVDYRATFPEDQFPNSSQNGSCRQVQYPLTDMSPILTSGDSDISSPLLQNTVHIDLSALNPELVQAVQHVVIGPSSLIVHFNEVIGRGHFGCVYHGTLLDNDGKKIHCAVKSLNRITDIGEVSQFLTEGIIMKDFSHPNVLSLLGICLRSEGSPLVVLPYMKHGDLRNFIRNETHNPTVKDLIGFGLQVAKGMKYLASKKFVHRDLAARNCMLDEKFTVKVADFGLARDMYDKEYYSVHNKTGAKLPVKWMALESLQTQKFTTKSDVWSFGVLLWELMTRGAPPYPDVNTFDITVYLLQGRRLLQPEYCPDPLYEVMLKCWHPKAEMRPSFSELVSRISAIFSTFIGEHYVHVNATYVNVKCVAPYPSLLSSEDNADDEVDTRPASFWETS

| SMILES | IC50 [1] | IC50 [2] | IC50 [3] |
| --- | --- | --- | --- |
| COc1cc2nccc(Oc3ccc(NC(=O)c4cn(C)c(CO)c(-c5ccc(F)cc5)c4=O)cc3)c2nc1OC [Compound 221, N-[4-[(6,7-Dimethoxy-1,5-naphthyridin-4-yl)oxy]phenyl]-5-(4-fluorophenyl)-6-(hydroxymethyl)-1-methyl-4-oxopyridine-3-carboxamide] | < 100 nM | < 100 nM | < 100 nM |
| COc1cnc2c(Oc3ccc(NC(=O)c4cn(C)c(CO)c(-c5ccc(F)cc5)c4=O)cc3F)ccnc2c1 [Compound 222, N-[3-Fluoro-4-[(7-methoxy-1,5-naphthyridin-4-yl)oxy]phenyl]-5-(4-fluorophenyl)-6-(hydroxymethyl)-1-methyl-4-oxopyridine-3-carboxamide] | < 100 nM | < 100 nM | < 100 nM |
| COc1cnc2c(Oc3ccc(NC(=O)c4cn(C)c(CO)c(-c5ccc(F)cc5)c4=O)cc3)ccnc2c1 [Compound 223, 5-(4-Fluorophenyl)-6-(hydroxymethyl)-N-[4-[(7-methoxy-1,5-naphthyridin-4-yl)oxy]phenyl]-1-methyl-4-oxopyridine-3-carboxamide] | < 100 nM | < 100 nM | < 100 nM |
| COc1ccc2nccc(Oc3ccc(NC(=O)c4cn(C)c(CO)c(-c5ccc(F)cc5)c4=O)cc3F)c2n1 [Compound 224, N-[3-Fluoro-4-[(6-methoxy-1,5-naphthyridin-4-yl)oxy]phenyl]-5-(4-fluorophenyl)-6-(hydroxymethyl)-1-methyl-4-oxopyridine-3-carboxamide] | < 100 nM | 100 to 300 nM | < 100 nM |
| COc1cc2nccc(Oc3ccc(NC(=O)c4ccc(C)n(-c5ccc(F)cc5C)c4=O)cc3)c2nc1OC [Compound 225, N-[4-[(6,7-Dimethoxy-1,5-naphthyridin-4-yl)oxy]phenyl]-1-(4-fluoro-2-methylphenyl)-6-methyl-2-oxopyridine-3-carboxamide] | < 100 nM | < 100 nM | < 100 nM |
| COc1cnc2c(Oc3ccc(NC(=O)c4ccc(C)n(-c5ccc(F)cc5C)c4=O)cc3)ccnc2c1 [Compound 226, 1-(4-Fluoro-2-methylphenyl)-N-[4-[(7-methoxy-1,5-naphthyridin-4-yl)oxy]phenyl]-6-methyl-2-oxopyridine-3-carboxamide] | < 100 nM | < 100 nM | < 100 nM |
| COCCOc1nc2c(Oc3ccc(NC(=O)c4ccc(C)n(-c5ccc(F)cc5)c4=O)cc3F)ccnc2cc1OC [Compound 227, N-[3-Fluoro-4-[[7-methoxy-6-(2-methoxyethoxy)-1,5-naphthyridin-4-yl]oxy]phenyl]-1-(4-fluorophenyl)-6-methyl-2-oxopyridine-3-carboxamide] | < 100 nM | < 100 nM | < 100 nM |
| COCCOc1nc2c(Oc3ccc(NC(=O)c4cn(C)c(CO)c(-c5ccc(F)cc5)c4=O)cc3F)ccnc2cc1OC [Compound 228, N-[3-Fluoro-4-[[7-methoxy-6-(2-methoxyethoxy)-1,5-naphthyridin-4-yl]oxy]phenyl]-5-(4-fluorophenyl)-6-(hydroxymethyl)-1-methyl-4-oxopyridine-3-carboxamide] | < 100 nM | < 100 nM | < 100 nM |
| COc1cc2nccc(Oc3ccc(NC(=O)c4ccc(C)n(-c5ccc(F)cc5)c4=O)cc3)c2nc1OC [Compound 229, N-[4-[(6,7-Dimethoxy-1,5-naphthyridin-4-yl)oxy]phenyl]-1-(4-fluorophenyl)-6-methyl-2-oxopyridine-3-carboxamide] | < 100 nM | < 100 nM | < 100 nM |
| COc1ccc2nccc(Oc3ccc(NC(=O)c4n[nH]c(C)c(-c5ccc(F)cc5C)c4=O)cc3F)c2n1 [Compound 230, N-[3-Fluoro-4-[(6-methoxy-1,5-naphthyridin-4-yl)oxy]phenyl]-5-(4-fluoro-2-methylphenyl)-6-methyl-4-oxo-1H-pyridazine-3-carboxamide] | < 100 nM | 100 to 300 nM | < 100 nM |
| COc1ccc2nccc(Oc3ccc(NC(=O)c4cnc(CO)c(-c5ccc(F)cc5)c4O)cc3F)c2n1 [Compound 231, N-[3-Fluoro-4-[(6-methoxy-1,5-naphthyridin-4-yl)oxy]phenyl]-5-(4-fluorophenyl)-4-hydroxy-6-(hydroxymethyl)pyridine-3-carboxamide] | < 100 nM | < 100 nM | < 100 nM |
| COc1ccc2nccc(Oc3ccc(NC(=O)c4cnc(C)n(-c5ccc(F)cc5)c4=O)cc3F)c2n1 [Compound 232, N-[3-Fluoro-4-[(6-methoxy-1,5-naphthyridin-4-yl)oxy]phenyl]-1-(4-fluorophenyl)-2-methyl-6-oxopyrimidine-5-carboxamide] | < 100 nM | < 100 nM | < 100 nM |
| COc1ccc2nccc(Oc3ccc(NC(=O)c4c(C)nc(C)n(-c5ccc(F)cc5)c4=O)cc3F)c2n1 [Compound 233, N-[3-Fluoro-4-[(6-methoxy-1,5-naphthyridin-4-yl)oxy]phenyl]-1-(4-fluorophenyl)-2,4-dimethyl-6-oxopyrimidine-5-carboxamide] | 100 to 300 nM | 100 to 300 nM | < 100 nM |
| COc1ccc2nccc(Oc3ccc(NC(=O)c4c(C)ncn(-c5ccc(F)cc5)c4=O)cc3F)c2n1 [Compound 234, N-[3-Fluoro-4-[(6-methoxy-1,5-naphthyridin-4-yl)oxy]phenyl]-1-(4-fluorophenyl)-4-methyl-6-oxopyrimidine-5-carboxamide] | > 300 nM | < 100 nM | < 100 nM |

More lines, now with the values ahead:

| IC50 [1] | IC50 [2] | IC50 [3] | SMILES |
| --- | --- | --- | --- |
| < 100 nM | < 100 nM | < 100 nM | COc1cc2nccc(Oc3ccc(NC(=O)c4c(C)ncc(-c5ccc(F)cc5)c4O)cc3)c2nc1OC [Compound 235, N-[4-[(6,7-Dimethoxy-1,5-naphthyridin-4-yl)oxy]phenyl]-5-(4-fluorophenyl)-4-hydroxy-2-methylpyridine-3-carboxamide] |
| < 100 nM | < 100 nM | < 100 nM | COc1cnc2c(Oc3ccc(NC(=O)c4c(C)ncc(-c5ccc(F)cc5)c4O)cc3)ccnc2c1 [Compound 236, 5-(4-Fluorophenyl)-4-hydroxy-N-[4-[(7-methoxy-1,5-naphthyridin-4-yl)oxy]phenyl]-2-methylpyridine-3-carboxamide] |
| < 100 nM | < 100 nM | < 100 nM | COc1cc2nccc(Oc3ccc(NC(=O)c4c(C)ncc(-c5ccc(F)cc5)c4O)cc3F)c2nc1OC [Compound 237, N-[4-[(6,7-Dimethoxy-1,5-naphthyridin-4-yl)oxy]-3-fluorophenyl]-5-(4-fluorophenyl)-4-hydroxy-2-methylpyridine-3-carboxamide] |
| < 100 nM | 100 to 300 nM | < 100 nM | COc1cnc2c(Oc3ccc(NC(=O)c4c(C)n(C)cc(-c5ccc(F)cc5)c4=O)cc3F)ccnc2c1 [Compound 239, N-[3-Fluoro-4-[(7-methoxy-1,5-naphthyridin-4-yl)oxy]phenyl]-5-(4-fluorophenyl)-1,2-dimethyl-4-oxopyridine-3-carboxamide] |
| < 100 nM | < 100 nM | < 100 nM | CCn1cc(-c2ccc(F)cc2)c(=O)c(C(=O)Nc2ccc(Oc3ccnc4cc(OC)cnc34)c(F)c2)c1C [Compound 240, 1-Ethyl-N-[3-fluoro-4-[(7-methoxy-1,5-naphthyridin-4-yl)oxy]phenyl]-5-(4-fluorophenyl)-2-methyl-4-oxopyridine-3-carboxamide] |
| 100 to 300 nM | < 100 nM | < 100 nM | COc1cnc2c(Oc3ccc(NC(=O)c4cnc(C(F)(F)F)c(-c5ccc(F)cc5)c4O)cc3F)ccnc2c1 [Compound 241, N-[3-Fluoro-4-[(7-methoxy-1,5-naphthyridin-4-yl)oxy]phenyl]-5-(4-fluorophenyl)-4-hydroxy-6-(trifluoromethyl)pyridine-3-carboxamide] |
| < 100 nM | < 100 nM | < 100 nM | COc1ccc2nccc(Oc3ccc(NC(=O)c4c(C)ncc(-c5ccc(F)cc5)c4O)cc3F)c2n1 [Compound 242, N-[3-Fluoro-4-[(6-methoxy-1,5-naphthyridin-4-yl)oxy]phenyl]-5-(4-fluorophenyl)-4-hydroxy-2-methylpyridine-3-carboxamide] |
| > 300 nM | < 100 nM | < 100 nM | COc1ccc2nccc(Oc3ccc(NC(=O)c4c(C)n(C)cc(-c5ccc(F)cc5)c4=O)cc3F)c2n1 [Compound 243, N-[3-Fluoro-4-[(6-methoxy-1,5-naphthyridin-4-yl)oxy]phenyl]-5-(4-fluorophenyl)-1,2-dimethyl-4-oxopyridine-3-carboxamide] |
| < 100 nM | < 100 nM | < 100 nM | COc1cnc2c(Oc3ccc(NC(=O)c4n[nH]c(C)c(-c5ccc(F)cc5)c4=O)cc3)ccnc2c1 [Compound 245, 5-(4-Fluorophenyl)-N-[4-[(7-methoxy-1,5-naphthyridin-4-yl)oxy]phenyl]-6-methyl-4-oxo-1H-pyridazine-3-carboxamide] |
